Assay [1] has as its target T1, beta-3 adrenoceptor (Rattus norvegicus, UniProt P26255).
T1 construct: The bladder longitudinal smooth muscle, with the urothelium still attached were mounted in 25 ml organ baths; from tissue; host or cells: rat urinary bladder (longitudinal smooth muscle with urothelium), male CD rats
The assay is described as follows: Desensitization and washout: CCRC on EFS-induced contraction of rat bladder strips after pre-incubation with the EC90 concentration and washing with PSS. On the procedure: (§1) Macroscopically normal bladders from Male CD rats (220-250 g) were used. […] Each bladder was cleaned free of surrounding connective tissue and halved longitudinally. The bladder longitudinal smooth muscle, with the urothelium still attached were mounted in 25 ml organ baths containing physiological saline solution (PSS) (composition: 119.0 mM NaCl, 4.7 mM KCl, 1.2 mM MgSO4, 24.9 mM NaHCO3, 1.2 mM KH2PO4, 2.5 mM CaCl2 and 11.1 mM glucose) supplemented with 1 μM prazosin (α1-adrenoceptor antagonist) and 30 nM ICI118551 (β2-adrenoceptor antagonist), aerated with 95% O2/5% CO2 gas mix, warmed and maintained at approximately 37° C. throughout the experiment. Changes in force production were recorded using transducers. After mounting, the bladder halves were allowed to equilibrate for at least 30 min before they were set to a stable tension of approximately 1.0 g. The tissue was then allowed to equilibrate over at least a 60 min period with washes every 15 min.
EFS parameters and viability check: In initial experiments the parameters for the EFS were assessed by performing a frequency curve to determine a frequency that would give a response that was approximately 80% of the response seen to 80 mM KCl. Optimal EFS parameters were determined to be: 30 Volts, square pulse of 0.1 ms, train of 4 seconds every 120 seconds, 15 Hz. This frequency was then used to stimulate the tissue for all subsequent experiments. The viability of bladder strips was tested by stimulating the tissue with EFS for minimum of ten min.
The bladder muscle strips were incubated with the EC90 determined for each test compound in the pilot studies, for a period of 1 or 3 hr. Following compound incubation, the tissues were washed with PSS for a period of 1, 3 or 6 hr, with washes approximately every 15 min, to remove the drug. At the end of the final wash period the tissues were stimulated with EFS, and left to equilibrate for at least 30 min. -A CCRC was then performed in each tissue.

For assay [2], the target named is T1, beta-3 adrenoceptor. The assay is described as follows: Pilot cumulative concentration response curves to determine EC90 for inhibition of EFS-induced contraction in rat isolated bladder. The following applies: rat isolated bladder strips, EFS 15 Hz, CCRC half-log increments; calculated values; read-out: EC90 concentration to inhibit EFS-induced contraction in rat isolated bladder. The protocol:
as §1, with “After mounting, the bladder halves were allowed to equilibrate for at least 30 min before they were set to a stable tension of approximately 1.0 g. The tissue was then allowed to equilibrate over at least a 60 min period with washes every 15 min.” left out
EFS parameters and viability check: In initial experiments the parameters for the EFS were assessed by performing a frequency curve to determine a frequency that would give a response that was approximately 80% of the response seen to 80 mM KCl. Optimal EFS parameters were determined to be: 30 Volts, square pulse of 0.1 ms, train of 4 seconds every 120 seconds, 15 Hz. […]
Pilot studies to determine EC90 concentrations of the test compounds were performed. […] From the data obtained in these experiments, EC90 concentrations of the test compounds were determined for use in subsequent experiments. […]

Assay [3] has as its target T2, murine adipocyte beta-3 adrenoceptor (Mus musculus, UniProt P25962).
T2 construct: host or cells: murine adipocytes (no further detail)
Conditions: literature report, cited from earlier work.

The mark [4] stands for this setting: three hr incubation with EC90, one hr of washing.
Setting [5] is: three hr incubation, low and mid-concentration range.

T1 sequence (P26255 whole entry): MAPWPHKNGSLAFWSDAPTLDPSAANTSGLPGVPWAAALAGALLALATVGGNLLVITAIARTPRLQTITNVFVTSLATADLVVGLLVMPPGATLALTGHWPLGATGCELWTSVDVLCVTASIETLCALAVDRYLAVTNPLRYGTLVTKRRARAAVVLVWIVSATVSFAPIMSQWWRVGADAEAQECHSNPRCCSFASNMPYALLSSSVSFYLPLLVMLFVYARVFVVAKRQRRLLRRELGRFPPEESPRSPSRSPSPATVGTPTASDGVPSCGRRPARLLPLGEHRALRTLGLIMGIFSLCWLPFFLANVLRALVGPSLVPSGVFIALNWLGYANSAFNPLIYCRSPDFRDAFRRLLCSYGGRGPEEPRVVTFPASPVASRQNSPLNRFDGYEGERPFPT
T2 sequence (P25962 whole entry): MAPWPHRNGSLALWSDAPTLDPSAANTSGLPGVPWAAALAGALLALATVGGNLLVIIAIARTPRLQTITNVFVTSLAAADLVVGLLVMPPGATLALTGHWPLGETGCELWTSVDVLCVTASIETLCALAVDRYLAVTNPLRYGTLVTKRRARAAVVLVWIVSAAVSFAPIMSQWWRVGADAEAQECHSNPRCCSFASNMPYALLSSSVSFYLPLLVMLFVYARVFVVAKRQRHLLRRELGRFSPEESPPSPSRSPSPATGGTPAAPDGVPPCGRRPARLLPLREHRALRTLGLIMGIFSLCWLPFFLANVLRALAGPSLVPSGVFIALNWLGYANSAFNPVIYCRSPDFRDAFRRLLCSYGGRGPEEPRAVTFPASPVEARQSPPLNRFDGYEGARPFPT

As to `C[C@H](Cc1ccc2c(c1)OC(C(=O)[O-])(C(=O)[O-])O2)NC[C@H](O)c1cccc(Cl)c1.[Na+].[Na+]` [CL-316,243], at beta-3 adrenoceptor [1] (setting [4]), the “Responses to the agonist (CCRC, reduction of EFS-induced contraction) vs vehicle-incubated tissue” value is “significantly attenuated”. For the same molecule, on beta-3 adrenoceptor [1] (setting [5]), the “Potentiation of EFS-induced contraction from baseline” value is on record as “not observed”. For the same molecule, the EC90 at beta-3 adrenoceptor [2] was 0.042 µM. For the same molecule, the “Functional response following prolonged exposure to the beta-3 agonist” value in assay [3] (murine adipocytes) is “attenuated”. The “Effect on murine adipocyte beta-3 adrenoceptor” value in assay [3] is “down-regulation”.

For `Nc1nc(CC(=O)Nc2ccc(CCNC[C@H](O)c3ccccc3)cc2)cs1` [mirabegron, (R)-2-(2-aminothiazol-4-yl)-N-(4-(2-((2-hydroxy-2-phenylethyl)amino)ethyl)phenyl)acetamide], the “Concentration range in which the EFS-mediated response was potentiated” value at beta-3 adrenoceptor [1] (following 1 or 3 hr of washout) lay in the range of 10 to 1000 nM. Besides, the “Responses to the agonist (CCRC, reduction of EFS-induced contraction) vs vehicle-incubated tissue” value is listed as “significantly attenuated” at beta-3 adrenoceptor [1] (one hr incubation with EC90, one hr of washing with PSS); “significantly attenuated” on beta-3 adrenoceptor [1] (one hr incubation with EC90, three hr of washing, higher concentrations); “significantly attenuated” at beta-3 adrenoceptor [1] (setting [4]); “significantly attenuated” on beta-3 adrenoceptor [1] (three hr incubation with EC90, three hr of washing, highest concentrations). Also, the “Potentiation of EFS-induced contraction from baseline” value is given as “marked potentiation of EFS-induced contraction” on beta-3 adrenoceptor [1] (one hr incubation, lower and mid-concentration range); “marked potentiation of EFS-induced contraction” on beta-3 adrenoceptor [1] (setting [5]). For the same molecule, the EC90 on beta-3 adrenoceptor [2] was 15.3 µM.

These data come from patent publication US20170348288A1, “DOSING REGIMENS FOR BETA-3 ADRENOCEPTOR AGONISTS AND ANTI-MUSCARINIC AGENTS FOR THE TREATMENT AND PREVENTION OF LOWER URINARY TRACT SYMPTOMS AND OVERACTIVE BLADDER” (VELICEPT THERAPEUTICS, INC., priority 2016, published 2017).
